We go through 5 molecules from patent publication US5627185A, “Acyclovir derivatives as antiviral agents” (priority 1995, dated 1997).

Where “and” joins values, the source holds several entries; their conditions need not be identical. Identical values can stand only once. Like-named read-outs stand apart in the source and are kept apart here.

One data set can be described thus: in vitro. Format: cell-based. The conditions noted are these: human, cem cells. The procedure: The toxic effect on non-infected CEMs is assessed by a […] reaction based on the capacity of living cells to reduce 3-(4,5 dimethylthiazol-2-yl)-2,5 diphenyltetrazolium bromide into formazan after incubation for five days in the presence of various concentrations of the compounds. The results are expressed as the lowest concentration of compound which results in at least 50% inhibition of the formation of formazan (CD50).
(§1) 2. Anti-HIV activity on CEM TK- cells of Bis(S-acyl-2-thioethyl) phosphotriesters derivatives of acyclovir, as compared with those of the parent nucleoside and of AZT are shown in Table 2.

A further data set has as its system HSV-1 TK- in MRC-5 cells. Nature of the data set: Anti-HSV activity on MRC-5 cells, HSV-1 TK-. Format: cell-based, Herpes simplex virus type 1 TK-. The conditions noted are these: Human alphaherpesvirus 1, MRC5, read-out: HSV-1 TK- EC50. The text has this: (§2) The experimental procedure used for evaluation of activities against Herpes simplex virus type 1 (HSV-1) is the as described by Genu-Dellac et al. in Nucleosides and Nucleotides, 10, 1345, (1991).
(§3) 3. Anti HSV activity on MRC-5 cells of Bis(S-acyl-2thioethyl)phosphotriesters derivatives of acyclovir is compared to that of Acyclovir in Table 3.
(§4) EC50 represents the molar concentration which produces a 50% inhibition of HSV-1 replication. Significant activity is shown.

Data set [1] concerns Human Immunodeficiency virus (HIV-1, LAI isolate) replication in CEM TK- cells. Nature of the data set: Anti-HIV activity on CEM TK- cells. In kind it is cell-based. The conditions noted are these: Human immunodeficiency virus 1, CEM-TK(-), read-out: EC50 (anti-HIV). The protocol: The experimental procedure used for evaluation of activities against Human Immunodeficiency virus (HIV) is as follows:
HIV-1 replication (LAI isolate) in CEM cells are measured by assaying for […] (RTase) in the culture supernatant after infection for five days. This activity reflects the presence of the virus released by the cells. After absorption of the virus, the test compounds are added at various concentrations in the culture medium. Antiviral activity is expressed as the lowest concentration of compound which reduces the vital production by at least 50% (ED50)
as §1
In Table 2, EC50 represents the molar concentration which produces a 50% inhibition of HIV replication. Significant inhibition is shown.

Data set [2] is described as follows: Viability of non-infected cells (CC50, Table 1). In kind it is cell-based. Particulars: human, hepg2 2.2.15 cells, reduces viability of non-infected cells by 50%. An excerpt:
(§5) The experimental procedure used for evaluation of activity against Hepatitis B virus is as previously described by Korba and Milman in Antiviral Res. […].
(§6) 1. Anti-HBV activity on transfected HepG2 (2.2.15) cells of Bis(S-acyl-2-thioethyl)phosphotriester derivatives of Acyclovir, (compound 9 of Figure I), as compared with those of the parent nucleoside and of 2',3'-dideoxyguanosine (ddG) and 2',3'-dideoxycytidine (ddC) are shown in Table 1.
(§7) In Table 1, EC90 and EC50 represent the molar concentrations which provide respectively a 90% and a 50% inhibition of HBV replication. CC50 represents the molar concentration which reduces the viability of non-infected cells by 50%.

The subject of data set [3] is Herpes simplex virus type 1 (HSV-1) in MRC-5 cells. Nature of the data set: Anti-HSV activity on MRC-5 cells, HSV-1. In kind it is cell-based. Particulars: Human alphaherpesvirus 1, MRC5, 50% inhibition of HSV-1 replication.
Source text: as §2, §3, §4

Data set [4] concerns Hepatitis B virus (HBV) replication, HBV virion, in transfected HepG2 (2.2.15) cells. Nature of the data set: Anti-HBV activity on transfected HepG2 (2.2.15) cells (HBV virion). In kind it is cell-based. The conditions noted are these: for EC50: 50% inhibition of HBV replication; for EC90: 90% inhibition of HBV replication; for SI: SI = CC50/EC90.
Source text: as §5, §6, §7

The next data set concerns HepG2 (2.2.15) cells. Nature of the data set: Viability of non-infected cells (CC50, Table 1). Format: cell-based. Particulars: reduces viability of non-infected cells by 50%.
Source text: as §5, §6, §7

The test system of a further data set is Cytomegalovirus. The conditions noted are these: background; thymidine kinase activity reduced or missing; cited from earlier work.
The subject of data set [5] is Human Immunodeficiency virus (HIV). Particulars: background; cited from earlier work.
Another data set relates to Hepatitis B virus (HBV). The conditions noted are these: background; cited from earlier work.
For another data set, the system named is Epstein-Barr virus. Particulars: background; thymidine kinase activity reduced or missing; cited from earlier work.
The test system of data set [6] is Herpes Simplex virus (HSV). The conditions noted are these: background; due to selective monophosphorylation by HSV thymidine kinase; cited from earlier work.
Where [7] appears, read: Hepatitis B virus, HepG2 2.2.15, transfected HepG2 (2.2.15) cells, read-out: HBV virion EC50.
[8] abbreviates: Hepatitis B virus, HepG2 2.2.15, transfected HepG2 (2.2.15) cells.
[9] abbreviates: Hepatitis B virus, HepG2 2.2.15, read-out: HBV virion EC50, transfected HepG2 (2.2.15) cells.

A word on the CC50: it is the concentration giving 50% cytotoxicity. High values mean lower toxicity to the cells, low ones greater toxicity to the cells. In general, EC50 refers to the concentration at which the effect is half-maximal. The EC90 is the concentration needed for an effect of 90%. A higher EC90 goes with a need for much substance.

In turn, `CC(C)(C)C(=O)SCCOP(=O)(OCCOCn1cnc2c(=O)[nH]c(N)nc21)OCCSC(=O)C(C)(C)C` [Bis(SPTE)ACVMP, O-[1-(Methyl-[9-guanin-yl]) -1-hydroxyethyl-2-yl]-O',O"-bis(S-pivaloyl-2-thioethyl) phosphate] gave a CC50 at 120 h in “in vitro” greater than 10 µM. This molecule had a cytotoxicity at 120 h, 10 µM in “in vitro” of 26%. Moreover, the EC50 was found to be 10 µM in the data set on HSV-1 TK- in MRC-5 cells, 3.6 µM in data set [1], 2.5 µM in data set [3] and 0.2 ± 0.04 µM in data set [4] (setting [7]). Besides, the midpoint of cytotoxicity in data set [2], the CC50, lay at 1590 ± 131 µM. In data set [4] (setting [8]), this molecule returned a 90% effect concentration (EC90) of 7.1 ± 0.8 µM. In data set [4], this molecule returned an SI of 224.

As for `CC(=O)SCCOP(=O)(OCCOCn1cnc2c(=O)[nH]c(N)nc21)OCCSC(C)=O` [Bis(SATE)ACVMP, O-[1-(Methyl-[9-guanin-yl])-1-hydroxyethyl-2-yl]-O',O"-bis(S-acetyl-2-thioethyl) phosphate], in the data set “in vitro”, the 50% cytotoxic concentration (CC50) at 120 h was greater than 100 µM. The molecule also came in with a cytotoxicity at 120 h, 100 µM in the data set “in vitro” of 0%. Besides, the EC50 turned out to be 100 µM with HSV-1 TK- in MRC-5 cells, 77 µM in data set [1], 1.25 µM in data set [3] and 0.7 ± 0.1 µM in [4] (setting [7]). The molecule also returned a CC50 in data set [2] of 987 ± 99 µM. This molecule also came in with an EC90 in data set [4] (setting [8]) of 5.1 ± 1 µM. In [4], this molecule registered an SI of 194.

In the data set “in vitro”, `Cc1cn([C@H]2C[C@H](N=[N+]=[N-])[C@@H](CO)O2)c(=O)[nH]c1=O` [AZT] displayed a CC50 at 120 h greater than 100 µM and a cytotoxicity at 120 h, 100 µM of 5%. The EC50 in [1] is greater than 100 µM.

On to `Nc1ccn([C@H]2CC[C@@H](CO)O2)c(=O)n1` [ddC, 2',3'-dideoxycytidine], for which the half-maximal cytotoxic concentration (CC50) with HepG2 (2.2.15) cells is 218 ± 19 µM; in data set [2], 219 ± 19 µM. In addition, the EC50 in data set [4] (setting [9]) is 1.3 ± 0.2 µM; in data set [4] (transfected HepG2 (2.2.15) cells, read-out: HBV virion EC50), 2.2 ± 0.3 µM. Further, the SI in [4] is 20 and 30.

Turning to `Nc1nc2c(ncn2COCCO)c(=O)[nH]1` [Acyclovir, acyclovir], in “in vitro”, the CC50 at 120 h was greater than 100 µM. In the data set “in vitro”, the cytotoxicity at 120 h, 100 µM came to 0%. Further, in the data set on Cytomegalovirus, the “activity against Cytomegalovirus (in words)” value is “poorly active”. Moreover, the EC50 with HSV-1 TK- in MRC-5 cells was greater than 100 µM; in [1] it was greater than 100 µM; in data set [3] it was 0.63 µM; in data set [4] (setting [9]), 111 ± 15 µM. Moreover, the “activity against HIV (in words)” value in data set [5] was “no activity”. Besides, the CC50 in data set [2] was 631 ± 40 µM. For the same molecule, the “activity against HBV (in words)” value with Hepatitis B virus (HBV) is listed as “no activity”. For the same molecule, in the data set on Epstein-Barr virus, the “activity against Epstein-Barr virus (in words)” value is on record as “poorly active”. In [4] (setting [8]), this molecule came in with a concentration for an effect of 90% (EC90) greater than 100 µM. Also, the “anti-herpetic activity (in words)” value in data set [6] was “anti-herpetic activity”.
